This note sets out measurements from article PMC5849182, “Kallikrein-related peptidase 7 is a potential target for the treatment of pancreatic cancer” (Oncotarget, 2018).

For series [1], the system named is HepG2 cells. Put plainly: RTCA proliferation, migration and invasion of KLK7 silenced HepG2 cells. Format: cell-based. The protocol: (§1) Cell migration assay was performed on RTCA xCELLigence DP (ACEA Biosciences). […] Migration was measured as the relative cell index change measured by the microelectronic sensors integrated into the bottom side of the membrane. Measurements were recorded every 15 min for 36 h.
(§2) Cell matrigel invasion assay was similar to the cell migration assay, except that the microporous membrane between the upper and lower chambers was coated by a thin layer of matrigel (BD Biosciences). After 36 h, cells on the bottom side were fixed in cold methanol, stained with 0.4% crystal violet, and photographed (5 random fields for each sample).

Series [2] concerns PANC-1 cells. Briefly: RTCA cell migration assay. Type of series: cell-based. Conditions: KLK7 silenced PANC-1 cells, compared to BC and NC groups. The method, then: as §1
(§3) The tested compound was added into the cell culture medium 3 h after PANC-1 cells were seeded. The cell prolifiation, migration and matrigel invasion was then assayed on RTCA.

Series [3] concerns KLK7. Put plainly: KLK7 expression in lentivirus-infected PANC-1 cells (real-time PCR and western blotting). Type of series: cell-based, human. The note with it: PANC-1 cells stably infected, compared to NC group. An excerpt:
A scrambled shRNA sequence was used as the negative control (LV-NC-shRNA, 5′-[…]-3′). The shRNA sequences were synthesized and cloned into recombinant shRNA expression vectors (pGLV3-H1-GFP-Puro). The resulted plasmids were verified by DNA sequencing.
PANC-1 and HepG2 cell lines were obtained from the Chinese Type Culture Collection Center (Wuhan, China). PANC-1 cells were maintained in dulbecco’s modified Eagle medium supplemented with 10% fetal bovine serum, 100 units/ml penicillin G sodium, and 100 μg/ml streptomycin sulphate. HepG2 cells were maintained in RPMI 1640 medium supplemented with 10% fetal bovine serum, 100 units/ml penicillin G sodium, and 100 μg/ml streptomycin sulphate. PANC-1 and HepG2 cells pro-treated by 5 μg/ml polybrene were infected with the lentivirus and stably infected cells were selected in cell culture medium containing 4 μg/ml puromycin (Sigma-Aldrich). […]
Western blotting assay was performed with cell lysates collected from stably transfected cells. Total protein concentrations were measured with the bicinchoninic assay (BCA). The sample proteins (20μg for each lane) were analyzed first in 12% SDS-PAGE and then transferred onto polyvinylidine difuorides membranes. […] The chemiluminescent data were collected and grayscale values were evaluated with Image J.
(Real-time PCR tracks product formation cycle by cycle.)

In series [4] the test system is PANC-1 cells. Put plainly: RTCA matrigel invasion assay. Type of series: cell-based. The note with it: KLK7 silenced PANC-1 cells, compared to BC and NC groups. The protocol:
as §2, §3

In the case of “5′-GCACUGAGUUAAUUAACUGUGUUUCAAGAGAACACAGUUAAUUAACUCAGUGCUU-3′ (expressed or natural sequence) [LV-hKLK7-shRNA-4, PANC-1 cells infected with it are named KD4]”, in series [1], the “Effect on invasion of HepG2 cells” value was “did not affect” and the “Effect on migration of HepG2 cells” value is given as “did not affect”. For the same substance, the “Decrease of migration rate” value in series [2] was “about 85%”. The “Decrease of KLK7 expression” value in series [3] is listed as “around 90%”. Also, the Invasion capacity result in series [4] was “almost fully inhibited”.
